Experiments:
Format in all cases: in vivo
[1] = test system: Kochia (Kochia scoparia); assay: Test A preemergence; details: Bassia scoparia, pre-emergence, 240 h, Preemergence
How it was run: (§1)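 Compounds were formulated in a non-phytotoxic solvent mixture with surfactant and applied as a preemergence directed soil spray after seeding, or sprayed postemergence over plants 2 to 10 cm tall at the one- to two-leaf stage. Evaluation after about 10 d compared treated with untreated controls, using a scale from 0 (no effect) to 100 (complete control).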

[2] = test system: ryegrass, Italian (Italian ryegrass, Lolium multiflorum); assay: Test A preemergence; details: Lolium multiflorum, pre-emergence, 240 h, Preemergence
How it was run: as §1

[3] = test system: barnyardgrass (Echinochloa crus-galli); assay: Test A preemergence; details: Echinochloa crus-galli, pre-emergence, 240 h, Preemergence
How it was run: as §1

[4] = test system: ragweed (common ragweed, Ambrosia elatior); assay: Test A preemergence; details: Ambrosia artemisiifolia, pre-emergence, 240 h, Preemergence
How it was run: as §1

[5] = test system: pigweed (Amaranthus retroflexus); assay: Test A preemergence; details: Amaranthus retroflexus, pre-emergence, 240 h, Preemergence
[6] = test system: Galium (catchweed bedstraw, Galium aparine); assay: Test A postemergence; details: Galium, post-emergence, 240 h, Postemergence, read-out: Galium plant response rating (0 to 100 scale)
How it was run: as §1

[7] = test system: Kochia (Kochia scoparia); assay: Test A postemergence; details: Bassia scoparia, post-emergence, 240 h, Postemergence, read-out: Kochia plant response rating (0 to 100 scale)
How it was run: as §1

[8] = test system: blackgrass (Alopecurus myosuroides); assay: Test A postemergence; details: Alopecurus myosuroides, post-emergence, 240 h, Postemergence, read-out: Blackgrass plant response rating (0 to 100 scale)
How it was run: as §1

[9] = test system: wheat (Triticum aestivum); assay: Test A postemergence; details: Triticum aestivum, post-emergence, 240 h, Postemergence, read-out: Wheat plant response rating (0 to 100 scale)
How it was run: as §1

[10] = test system: ryegrass, Italian (Italian ryegrass, Lolium multiflorum); assay: Test A postemergence; details: Lolium multiflorum, post-emergence, 240 h, Postemergence, read-out: Ryegrass, Italian plant response rating (0 to 100 scale)
How it was run: as §1

[11] = test system: barnyardgrass (Echinochloa crus-galli); assay: Test A postemergence; details: Echinochloa crus-galli, post-emergence, 240 h, Postemergence
How it was run: as §1

[12] = test system: ragweed (common ragweed, Ambrosia elatior); assay: Test A postemergence; details: Ambrosia artemisiifolia, post-emergence, 240 h, Postemergence, read-out: Ragweed plant response rating (0 to 100 scale)
How it was run: as §1

[13] = test system: corn (Zea mays); assay: Test A postemergence; details: Zea mays, post-emergence, 240 h, Postemergence, read-out: Corn plant response rating (0 to 100 scale)
How it was run: as §1

[14] = test system: giant foxtail (Setaria faberii); assay: Test A postemergence; details: Setaria faberi, post-emergence, 240 h, Postemergence, read-out: Foxtail, Giant plant response rating (0 to 100 scale)
How it was run: as §1

[15] = test system: pigweed (Amaranthus retroflexus); assay: Test A postemergence; details: Amaranthus retroflexus, post-emergence, 240 h, Postemergence, read-out: Pigweed plant response rating (0 to 100 scale)
How it was run: as §1

[16] = 125 g ai/ha, visual rating about 10 d after treatment
[17] = 31 g ai/ha, 0 is no effect, 100 is complete control

CN1C[C@H](c2csc3c2CCC(F)(F)C3)[C@@H](C(=O)Nc2ccccc2S(C)(=O)=O)C1=O (racemic) [Compound 1367] gave a pest or weed control at 31 g/ha ([1]; 31 g ai/ha, 0 to 100 scale where 0 is no effect and 100 is complete control, read-out: Kochia plant response rating) of 0%, a pest or weed control at 125 g/ha ([1]; 125 g ai/ha, 0 to 100 scale (0 no effect, 100 complete control), read-out: Plant response rating, Kochia) of 0% and a pest or weed control at 31 g/ha ([2]; 31 g ai/ha, 0 to 100 scale where 0 is no effect and 100 is complete control, read-out: Ryegrass, Italian plant response rating) of 0%. It also gave a pest or weed control at 125 g/ha ([2]; 125 g ai/ha, 0 to 100 scale (0 no effect, 100 complete control), read-out: Plant response rating, Ryegrass, Italian) of 0%, a pest or weed control at 31 g/ha ([3]; 31 g ai/ha, 0 to 100 scale where 0 is no effect and 100 is complete control, read-out: Barnyardgrass plant response rating) of 0% and a pest or weed control at 125 g/ha ([3]; 125 g ai/ha, 0 to 100 scale (0 no effect, 100 complete control), read-out: Plant response rating, Barnyardgrass) of 80%. The pest or weed control at 31 g/ha ([4]; 31 g ai/ha, 0 to 100 scale where 0 is no effect and 100 is complete control, read-out: Ragweed plant response rating) was 0%, the pest or weed control at 125 g/ha ([4]; 125 g ai/ha, 0 to 100 scale (0 no effect, 100 complete control), read-out: Plant response rating, Ragweed) was 0% and the pest or weed control at 31 g/ha ([5]; 31 g ai/ha, 0 to 100 scale where 0 is no effect and 100 is complete control, read-out: Pigweed plant response rating) was 0%. For the same compound, the pest or weed control at 125 g/ha ([5]; 125 g ai/ha, 0 to 100 scale (0 no effect, 100 complete control), read-out: Plant response rating, Pigweed) was 0%, the pest or weed control at 125 g/ha [6, 16] was 0% and the pest or weed control at 31 g/ha [6, 17] was 0%. The pest or weed control at 125 g/ha [7, 16] was 0%, the pest or weed control at 31 g/ha [7, 17] was 0% and the pest or weed control at 125 g/ha [8, 16] was 0%. For the same compound, the pest or weed control at 31 g/ha [8, 17] was 0%, the plant injury at 125 g/ha [9, 16] was 0% and the plant injury at 31 g/ha [9, 17] was 0%. It also gave a pest or weed control at 125 g/ha [10, 16] of 0%, a pest or weed control at 31 g/ha [10, 17] of 0% and a pest or weed control at 125 g/ha ([11]; 125 g ai/ha, visual rating about 10 d after treatment, read-out: Barnyardgrass plant response rating (0 to 100 scale, 0 no effect, 100 complete control)) of 30%. The pest or weed control at 31 g/ha ([11]; 31 g ai/ha, 0 is no effect, 100 is complete control, read-out: Barnyardgrass plant response rating (0 to 100 scale)) was 0%, the pest or weed control at 125 g/ha [12, 16] was 0% and the pest or weed control at 31 g/ha [12, 17] was 0%. The plant injury at 125 g/ha [13, 16] was 0%, the plant injury at 31 g/ha [13, 17] was 0% and the pest or weed control at 125 g/ha [14, 16] was 30%. It also gave a pest or weed control at 31 g/ha [14, 17] of 0%, a pest or weed control at 125 g/ha [15, 16] of 20% and a pest or weed control at 31 g/ha [15, 17] of 0%.

Source: patent US12077503B2, “Substituted cyclic amides and their use as herbicides” (FMC CORPORATION, priority 2015, dated 2024)
